Where a name gives a salt, the structure may show the parent alone.
The compounds below were run against T1, human recombinant ENPP1 enzymes (Homo sapiens, UniProt P22413) (assay: ENPP1 Enzyme Assay with cGAMP Substrate (AMP-Glo)). Conditions: human recombinant ENPP1 3 ng/reaction, cGAMP 5 μM, 37° C. 90 minutes, average of two or more tests; read-out: Enzymatic activity IC50.
T1 construct: purchased R & D systems
T1 sequence (P22413 1-925): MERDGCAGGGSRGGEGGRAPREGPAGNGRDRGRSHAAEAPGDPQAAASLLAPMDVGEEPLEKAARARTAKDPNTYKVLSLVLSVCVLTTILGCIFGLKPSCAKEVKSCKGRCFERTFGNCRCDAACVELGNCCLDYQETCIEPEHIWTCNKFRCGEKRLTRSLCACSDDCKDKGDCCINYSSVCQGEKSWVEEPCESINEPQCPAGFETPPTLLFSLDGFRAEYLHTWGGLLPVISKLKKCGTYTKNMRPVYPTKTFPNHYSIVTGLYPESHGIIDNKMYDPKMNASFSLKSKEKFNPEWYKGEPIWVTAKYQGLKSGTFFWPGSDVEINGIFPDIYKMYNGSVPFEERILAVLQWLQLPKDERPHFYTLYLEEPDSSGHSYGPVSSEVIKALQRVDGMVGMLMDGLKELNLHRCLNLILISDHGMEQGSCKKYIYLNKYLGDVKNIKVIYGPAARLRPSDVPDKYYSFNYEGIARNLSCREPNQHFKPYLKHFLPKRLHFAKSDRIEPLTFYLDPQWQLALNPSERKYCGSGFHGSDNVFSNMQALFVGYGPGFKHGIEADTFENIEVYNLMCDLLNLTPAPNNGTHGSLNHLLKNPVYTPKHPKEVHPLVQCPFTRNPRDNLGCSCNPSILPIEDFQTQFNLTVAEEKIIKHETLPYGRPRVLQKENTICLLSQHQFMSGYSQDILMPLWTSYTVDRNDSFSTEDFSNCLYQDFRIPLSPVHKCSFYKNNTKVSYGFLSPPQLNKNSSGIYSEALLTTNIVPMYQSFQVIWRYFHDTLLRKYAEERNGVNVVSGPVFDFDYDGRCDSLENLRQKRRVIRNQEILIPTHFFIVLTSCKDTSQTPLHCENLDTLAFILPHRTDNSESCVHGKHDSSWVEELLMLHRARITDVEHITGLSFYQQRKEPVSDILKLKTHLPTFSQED
Format: biochemical
Description: ENPP1 hydrolyzes nucleotides or nucleotide derivatives to produce nucleoside-5′-monophosphate and pyrophosphate. In addition, ENPP1 hydrolyzes 2′,3′-cGAMP to produce 5′-adenosine monophosphate (AMP) and 5′-guanosine monophosphate (GMP). AMP produced from the reaction is measured using the AMP-Glo® kit (Promega). The AMP-Glo® kit contains two reagents. The first reagent terminates the AMP-producing enzymatic reaction, removes ATP and converts the produced AMP into ADP. The second reagent converts ADP to ATP which is used to generate luminescence in the luciferase reaction. The amount of luminescence measured is proportional to the amount of AMP produced by ENPP1.
The final reaction mixture contains 50 mM Tris (pH 8.5) buffer, 250 mM NaCl, 0.5 mM CaCl2), 1 μM ZnCl2, 5% glycerol and 1% DMSO. Serially diluted ENPP1 inhibitors (typically in the range of 10 μM to 0.5 nM) were pre-stored with human recombinant ENPP1 enzymes (R & D systems) at 3 ng/reaction and room temperature (RT) for 5 to 10 minutes. The reaction was initiated by addition of cGAMP (at a final concentration of 5 μM) and reacted at 37° C. for 90 minutes. At the end of the reaction, 10 μl of the AMP-Glo first reagent was added to stop the reaction and the result was stored at room temperature for 1 hour. After storage, 20 μl of an AMP detection solution (a mixture of AMP-Glo II reagent and Kinase-Glo at a ratio of 1:100) was added and stored at room temperature for 1 hour. Luminescence signals were measured using a Victor® plate reader (Perkin Elmer). The maximal activity control (containing enzymes and substrates in the presence of 1% DMSO; MAX) and the minimal activity control (containing substrates and 1% DMSO; MIN) were evaluated simultaneously. In each experiment, serially diluted reference ENPP1 inhibitors were tested as well. IC50, indicating % residual activity versus compound concentration was determined by fitting inhibition curves using the 3-parameter analysis of GraphPad Prism® software. Serially diluted samples of one compound were tested two or more times and an average IC50 of each compound was calculated.

Row | SMILES | IC50 [nM]
1 | NS(=O)(=O)NCc1ccc(F)c(Nc2ccnc3[nH]c(=O)ccc23)c1 [Example 91, N-(4-fluoro-3-((7-oxo-7,8-dihydro-1,8-naphthyridin-4-yl)amino)benzyl)sulfamide dihydrochloride] | < 1000
2 | NS(=O)(=O)NCc1ccc(-c2ccnc3c2CCC(=O)N3)cc1 [Example 141, N-(4-(7-oxo-5,6,7,8-tetrahydro-1,8-naphthyridin-4-yl)benzyl)sulfamide] | < 1000
3 | Cl.Nc1ccc(F)c(-c2ccnc3[nH]c(=O)ccc23)c1 [Example 8, 5-(5-(amino-2-fluorophenyl)-1,8-naphthyridin-2(1H)-one hydrochloride] | > 10000
4 | NS(=O)(=O)N(Cc1ccc(Nc2ccnc3[nH]c(=O)ccc23)cc1)C1CC1 [Example 99, N-cyclopropyl-N-(4-((7-oxo-7,8-dihydro-1,8-naphthyridin-4-yl)amino)benzyl)sulfamide dihydrochloride] | 1000 to 10000
5 | NS(=O)(=O)NC1CCN(c2ccnc3[nH]c(=O)ccc23)CC1 [Example 123, N-(1-(7-oxo-7,8-dihydro-1,8-naphthyridin-4-yl)piperidin-4-yl)sulfamide] | < 1000
6 | NS(=O)(=O)NCCC1CCN(c2ccnc3[nH]c(=O)ccc23)CC1 [Example 125, N-(2-(1-(7-oxo-7,8-dihydro-1,8-naphthyridin-4-yl)piperidin-4-yl)ethyl)sulfamide] | < 1000
7 | CC(C)(C)OC(=O)Nc1cccc(-c2ccnc3[nH]c(=O)ccc23)c1 [Example 1, tert-butyl(3-(7-oxo-7,8-dihydro-1,8-naphthyridin-4-yl)phenyl)carbamate] | 1000 to 10000
8 | O=c1ccc2c(Nc3ccc4c(c3)CNCCC4)ccnc2[nH]1 [Example 87, 5-((2,3,4,5-tetrahydro-1H-benzo[c]azepin-8-yl)amino)-1,8-naphthyridin-2(1H)-one dihydrochloride] | > 10000
9 | NS(=O)(=O)NCc1cccc(Nc2ccnc3[nH]c(=O)ccc23)c1 [Example 89, N-(3-((7-oxo-7,8-dihydro-1,8-naphthyridin-4-yl)amino)benzyl)sulfamide dihydrochloride] | < 1000
10 | NC1CCN(c2ccnc3[nH]c(=O)ccc23)CC1 [Example 113, 5-(4-aminopiperidin-1-yl)-1,8-naphthyridin-2(1H)-one hydrochloride] | < 1000
11 | NS(=O)(=O)NCc1ccc(-c2ccnc3[nH]c(=O)ccc23)cc1 [Example 40, N-(4-(7-oxo-7,8-dihydro-1,8-naphthyridin-4-yl)benzyl)sulfamide] | < 1000
12 | NS(=O)(=O)NC1Cc2ccc(Nc3ccnc4[nH]c(=O)ccc34)cc2C1 (stereo not shown) [Example 107, N-(5-((7-oxo-7,8-dihydro-1,8-naphthyridin-4-yl)amino)-2,3-dihydro-1H-inden-2-yl)sulfamide dihydrochloride] | < 1000
13 | O=c1ccc2c(Nc3ccc4c(c3)CCNC4)ccnc2[nH]1 [Example 85, 5-((1,2,3,4-tetrahydroisoquinolin-6-yl)amino)-1,8-naphthyridin-2(1H)-one dihydrochloride] | < 1000
14 | NCc1cccc(Nc2ccnc3[nH]c(=O)ccc23)c1 [Example 77, 5-((3-aminomethyl)phenyl)amino)-1,8-naphthyridin-2(1H)-one dihydrochloride] | < 1000
15 | NS(=O)(=O)N1CCc2cc(Nc3ccnc4[nH]c(=O)ccc34)c(F)cc2C1 [Example 106, (7-fluoro-6-((7-oxo-7,8-dihydro-1,8-naphthyridin-4-yl)amino)-3,4-dihydroisoquinolin-2(1H)-yl) sulfamide dihydrochloride] | < 1000
16 | CC(C)(C)OC(=O)NS(=O)(=O)NCc1ccc(-c2ccnc3[nH]c(=O)ccc23)cc1 [Example 32, tert-butyl(N-(4-(7-oxo-7,8-dihydro-1,8-naphthyridin-4-yl)benzyl)sulfamoyl)carbamate] | < 1000

Row | SMILES | IC50 [nM]
17 | Cn1c(=O)ccc2c(-c3ccc(CNS(N)(=O)=O)cc3)ccnc21 [Example 67, N-(4-(8-methyl-7-oxo-7,8-dihydro-1,8-naphthyridin-4-yl)benzyl)sulfamide] | < 1000
18 | O=c1ccc2c(-c3ccc4c(c3)CNC4)ccnc2[nH]1 [Example 26, 5-(isoindolin-5-yl)-1,8-naphthyridin-2(1H)-one hydrochloride] | < 1000
19 | O=c1ccc2c(-c3ccc4c(c3)CNCC4)ccnc2[nH]1 [Example 27, 5-(1,2,3,4-tetrahydroisoquinolin-7-yl)-1,8-naphthyridin-2(1H)-one hydrochloride] | 1000 to 10000
20 | Cn1c(=O)ccc2c(N3CCC(CN)CC3)ccnc21 [Example 118, 5-(4-(aminomethyl)piperidin-1-yl)-1-methyl-1,8-naphthyridin-2(1H)-one hydrochloride] | > 10000
21 | NCc1ccc(-c2ccnc3c2CCC(=O)N3)cc1 [Example 133, 5-(4-(aminomethyl)phenyl)-3,4-dihydro-1,8-naphthyridin-2(1H)-one hydrochloride] | < 1000
22 | CN[C@@H](C)c1ccc(-c2ccnc3[nH]c(=O)ccc23)cc1 [Example 18, (S)-5-(4-(1-(methylaminoethyl)phenyl)-1,8-naphthyridin-2(1H)-one hydrochloride] | < 1000
23 | NCCC1CCN(c2ccnc3[nH]c(=O)ccc23)CC1 [Example 115, 5-(4-(2-aminoethyl)piperidin-1-yl)-1,8-naphthyridin-2(1H)-one hydrochloride] | < 1000
24 | Cc1ccc(S(=O)(=O)NCc2cccc(-c3ccnc4c3CCC(=O)N4)c2)cc1 [Example 147, 4-methyl-N-(3-(7-oxo-5,6,7,8-tetrahydro-1,8-naphthyridin-4-yl)benzyl)benzenesulfonamide] | < 1000
25 | NCc1cccc(-c2ccnc3c2CCC(=O)N3)c1 [Example 132, 5-(3-(aminomethyl)phenyl)-3,4-dihydro-1,8-naphthyridin-2(1H)-one hydrochloride] | > 10000
26 | NS(=O)(=O)N1CCC2(CCN(c3ccnc4[nH]c(=O)ccc34)CC2)C1 [Example 126, 8-(7-oxo-7,8-dihydro-1,8-naphthyridin-4-yl)-2,8-diazaspiro[4,5]decane-2-sulfamide] | < 1000
27 | CCN(Cc1ccc(-c2ccnc3[nH]c(=O)ccc23)cc1)S(N)(=O)=O [Example 51, N-ethyl-N-(4-(7-oxo-7,8-dihydro-1,8-naphthyridin-4-yl)benzyl)sulfamide hydrochloride] | < 1000
28 | NCc1cc(Nc2ccnc3[nH]c(=O)ccc23)ccc1F [Example 78, 5-((3-aminomethyl)-4-fluorophenyl)amino)-1,8-naphthyridin-2(1H)-one dihydrochloride] | < 1000
29 | CN[C@H](C)c1ccc(-c2ccnc3[nH]c(=O)ccc23)cc1 [Example 17, (R)-5-(4-(1-(methylaminoethyl)phenyl)-1,8-naphthyridin-2(1H)-one hydrochloride] | 1000 to 10000
30 | C[C@H](c1ccc(-c2ccnc3[nH]c(=O)ccc23)cc1)N(C1CC1)S(N)(=O)=O [Example 60, (R)-(N-cyclopropyl-N-(1-(4-(7-oxo-7,8-dihydro-1,8-naphthyridin-4-yl)phenyl)ethyl)sulfamide hydrochloride] | 1000 to 10000
31 | CC(C)(C)OC(=O)NCc1cccc(-c2ccnc3[nH]c(=O)ccc23)c1 [Example 2, tert-butyl(3-(7-oxo-7,8-dihydro-1,8-naphthyridin-4-yl)benzyl)carbamate] | 1000 to 10000
